How the values were obtained:
[1] = target: Prothrombin (Homo sapiens, UniProt P00734); assay: In vitro inhibition of human thrombin.
[2] = species on record: Homo sapiens; assay: Influence on the doubling of activated partial human thromboplastin time(APTT); type: functional
[3] = Bioavailability in rat after p.o. administration at a dose of 30 mg/kg; type: ADME, organism-based; settings: in vivo, po

Row | SMILES | Ki [1] [nM] | bioavailability [3] [%] | Activity [2] [µM]
1 | CCC1CCN(C(=O)[C@H](Cc2ccc(N)cc2)NS(=O)(=O)c2cnccc2N[C@H](COCCO)Cc2ccccc2)CC1 (stereo in doubt; 16) | 147 |  | 
2 | CN(C)C[C@H](Cc1ccccc1)Nc1ccncc1S(=O)(=O)N[C@@H](Cc1ccccc1)C(=O)N1CCC(CCF)CC1 (stereo in doubt; 64) [listing 1 of 2 here] |  |  | 9.6
3 | O=C([C@H](Cc1ccccc1)NS(=O)(=O)c1cnccc1N[C@H](COCCO)Cc1ccccc1)N1CCC(CCF)CC1 | 220 |  | 
4 | CCC1CCN(C(=O)[C@H](Cc2ccc(N)cc2)NS(=O)(=O)c2cnccc2N[C@H](COCCO)Cc2ccccc2)CC1 (stereo in doubt; 62) [listing 1 of 2 here] |  |  | 5
5 | CN(C)C[C@H](Cc1ccccc1)Nc1ccncc1S(=O)(=O)N[C@@H](Cc1ccccc1)C(=O)N1CCC(CCF)CC1 (stereo in doubt; 64) [listing 2 of 2 here] | 130 |  | 
6 | Nc1ccc(C[C@H](NS(=O)(=O)c2cnccc2N[C@@H](Cc2ccccc2)CN2CCOCC2)C(=O)N2CCC(CCF)CC2)cc1 |  |  | 2.9
7 | CCC1CCN(C(=O)[C@H](Cc2ccc(N)cc2)NS(=O)(=O)c2cnccc2N[C@H](COCCO)Cc2ccccc2)CC1 (stereo in doubt; 62) [listing 2 of 2 here] | 147 | 55 | 

Continued by falling Ki [1], values first:

Row | Ki [1] [nM] | bioavailability [3] [%] | SMILES | Activity [2] [µM]
8 | 130 |  | CN(C)C[C@H](Cc1ccccc1)Nc1ccncc1S(=O)(=O)N[C@@H](Cc1ccccc1)C(=O)N1CCC(CCF)CC1 (stereo in doubt; 8) | 
9 | 85 |  | COc1ccc(C[C@@H](CO)Nc2ccncc2S(=O)(=O)N[C@@H](Cc2ccccc2)C(=O)N2CCC(CCF)CC2)cc1 | 
10 | 62 |  | CCC1CCN(C(=O)[C@H](Cc2ccc(N)cc2)NS(=O)(=O)c2cnccc2N[C@@H](Cc2ccccc2)CN2CCOCC2)CC1 | 
11 | 61 |  | O=C([C@H](Cc1ccccc1)NS(=O)(=O)c1cnccc1N[C@@H](Cc1ccccc1)CN1CCC(O)CC1)N1CCC(CCF)CC1 | 
12 | 40 |  | CCC1CCN(C(=O)[C@H](Cc2ccc(N)cc2)NS(=O)(=O)c2cnccc2N[C@H](CO)Cc2ccc(OC)cc2)CC1 | 
13 | 28 |  | O=C([C@H](Cc1ccc(O)cc1)NS(=O)(=O)c1cnccc1N[C@H](COCCO)Cc1ccccc1)N1CCC(CCCl)CC1 | 4.4

Reference: ChEMBL document CHEMBL1132061, “Studies towards the identification of potent, selective and bioavailable thrombin inhibitors” (Bioorg Med Chem Lett, 1999)
